The results in this text go back to ChEMBL document CHEMBL1201862, “PubChem BioAssay data set” (2004).

The structures appear in SMILES notation.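 Growth conditions: 96-well plates. Treatment: test compound, 48 hours, 5 concentrations. Analysis: linear interpolation between bracketing concentrations; unreached endpoints set to highest concentration. GI50 is the concentration that inhibits growth by half.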 Calls of active or inactive are those of the source. Rule as the data show it: active = GI50 up to about 1.1 µM and inactive = higher.

The GI50 is the concentration giving 50% growth inhibition.

Some test systems named below: A498; ACHN; EKVX; HL-60; LOX IMVI; NCI-H226; NCI-H23; NCI-H460; NCI-H522; OVCAR-3; OVCAR-4; OVCAR-5; SF-539; SN12C; SNB-75; TK-10; U-251; MDA-MB-231; MDA-MB-435.
What all share (test): DTP human tumour cell line panel, 48 h

On to `c1cnc2c3[nH]cc4[nH]c5ccccc5c4c-3nc2c1`, for which the GI50 with A498 was > 100 µM (inactive); with ACHN, 61.4 µM (inactive); with EKVX, > 100 µM (inactive); with HL-60 it was 76 µM (inactive); with LOX IMVI, 52.5 µM (inactive); with NCI-H226 it was 48.3 µM (inactive). Besides, the GI50 was > 100 µM (inactive) in the experiment on NCI-H23; 35.6 µM (inactive) in the experiment on NCI-H460; > 100 µM (inactive) in the experiment on NCI-H522; 53 µM (inactive) with OVCAR-3; 44 µM (inactive) in the experiment with OVCAR-4; > 100 µM (inactive) in the experiment on OVCAR-5. Also, the GI50 in the experiment on SF-539 was 93.3 µM (inactive); with SN12C, > 100 µM (inactive); in the experiment with SNB-75, 51.9 µM (inactive); in the experiment on TK-10 it was > 100 µM (inactive); in the experiment on U-251 it was 75.3 µM (inactive).

As for `CCOC(=O)[C@]12C(=C(c3ccccc3)O[C@H]3C=CCC[C@H]31)C(=O)C(=O)N2c1ccccc1`, the GI50 in the experiment on A498 is > 100 µM (inactive); with ACHN, > 100 µM (inactive); in the experiment on MDA-MB-231 it was > 100 µM (inactive); in the experiment with NCI-H23 it was > 100 µM (inactive); in the experiment on NCI-H460 it was > 100 µM (inactive); in the experiment with NCI-H522, 24 µM (inactive). The GI50 in the experiment on OVCAR-3, with OVCAR-4, in the experiment with OVCAR-5, with SF-539, with SN12C and with TK-10 was > 100 µM (inactive) each time. For the same molecule, the GI50 with U-251 is 13.4 µM (inactive).

As for `Cc1c2c(n(C)c1C)C(=O)C1C(C2=O)C2(C)c3ccccc3C1(C)c1ccccc12` (stereo not given), the GI50 with A498, with ACHN, in the experiment on EKVX, in the experiment with HL-60, with LOX IMVI and with MDA-MB-435 was > 100 µM (inactive) in each case. For the same molecule, the GI50 with NCI-H226, in the experiment on NCI-H23, in the experiment with NCI-H460, in the experiment on OVCAR-3, in the experiment on OVCAR-5 and in the experiment with SF-539 was > 100 µM (inactive) each time. In addition, the GI50 was > 100 µM (inactive) in the experiment with SNB-75, > 100 µM (inactive) with TK-10 and > 10 µM (inactive) with U-251.

For the molecule `Cc1cc(Cl)ccc1C1OC(=O)c2c1ccc1ccccc21` (stereo not given), the GI50 with A498, with ACHN, in the experiment with EKVX, with HL-60, in the experiment with LOX IMVI and with NCI-H226 was > 100 µM (inactive) each time. Moreover, the GI50 in the experiment on NCI-H23 was > 100 µM (inactive); in the experiment on NCI-H460, > 100 µM (inactive); in the experiment on NCI-H522 it was > 100 µM (inactive); in the experiment on OVCAR-3, > 100 µM (inactive); with OVCAR-4, 23.6 µM (inactive); in the experiment with OVCAR-5 it was > 100 µM (inactive). In addition, the GI50 is > 100 µM (inactive) with SF-539; > 100 µM (inactive) in the experiment on SN12C; 29.9 µM (inactive) in the experiment with SNB-75; > 100 µM (inactive) with TK-10; > 100 µM (inactive) with U-251.

Turning to `O=C1C[C@@H](c2ccc(O)cc2)[C@@]2(O1)C(=O)O[C@H]([C@@H](O)CO)[C@@H]2O`, the GI50 in the experiment with A498, in the experiment with ACHN, in the experiment with EKVX, with HL-60, with LOX IMVI and with MDA-MB-231 was > 100 µM (inactive) each time. Besides, the GI50 with MDA-MB-435, with NCI-H226, with NCI-H23, in the experiment on NCI-H460, with NCI-H522 and in the experiment on OVCAR-3 was > 100 µM (inactive) each time. For the same molecule, the GI50 in the experiment on OVCAR-4, in the experiment on OVCAR-5, with SF-539, with SN12C, in the experiment with SNB-75 and in the experiment on TK-10 was > 100 µM (inactive) each time. In the experiment with U-251, the GI50 is > 100 µM (inactive).

For the molecule `Nc1nc(S)nc(C(=O)Nc2nccs2)c1-c1ccccc1`, the GI50 with A498, in the experiment with ACHN, in the experiment on EKVX, in the experiment with HL-60, in the experiment on LOX IMVI and in the experiment with NCI-H226 was > 100 µM (inactive) each time. Also, the GI50 in the experiment with NCI-H23, in the experiment with NCI-H460, in the experiment with NCI-H522, in the experiment with OVCAR-3, with OVCAR-4 and in the experiment with OVCAR-5 was > 100 µM (inactive) throughout. Also, the GI50 in the experiment on SF-539, in the experiment on SN12C, in the experiment on SNB-75, in the experiment with TK-10 and with U-251 was > 100 µM (inactive) in each case.

For the molecule `O=Cc1ccc2c(c1I)OCO2`, the GI50 with A498, with ACHN, in the experiment with EKVX, in the experiment with HL-60, with LOX IMVI and in the experiment on NCI-H226 was > 100 µM (inactive) in each case. In addition, the GI50 with NCI-H23, in the experiment with NCI-H460, in the experiment on NCI-H522, with OVCAR-3, with OVCAR-4 and in the experiment on OVCAR-5 was > 100 µM (inactive) in each case. Besides, the GI50 in the experiment on SF-539, with SN12C, in the experiment with SNB-75, in the experiment with TK-10 and with U-251 was > 100 µM (inactive) each time.

On to `CCOC1(OCC)N=C(N)C2(C#N)C3(C(=O)N(C(C)C)N=C3C)C12C#N` (stereo not given), for which the GI50 is > 100 µM (inactive) in the experiment with A498; > 100 µM (inactive) with ACHN; > 100 µM (inactive) with EKVX; 0.893 µM (active) in the experiment with HL-60; > 100 µM (inactive) in the experiment with MDA-MB-231; > 100 µM (inactive) in the experiment on MDA-MB-435. For the same molecule, the GI50 is > 100 µM (inactive) in the experiment on NCI-H226; > 100 µM (inactive) with NCI-H23; > 100 µM (inactive) with NCI-H460; 79.1 µM (inactive) in the experiment with NCI-H522; 44.3 µM (inactive) in the experiment on OVCAR-3; > 100 µM (inactive) in the experiment on OVCAR-4. Also, the GI50 in the experiment with OVCAR-5, in the experiment on SF-539, in the experiment on SN12C, in the experiment with SNB-75 and in the experiment with U-251 was > 100 µM (inactive) each time.

For the molecule `CCOC(=O)c1sc2c(C(=O)OCC)n3ccccc3c2c1N`, the GI50 is 71.9 µM (inactive) in the experiment on A498; 52.8 µM (inactive) with ACHN; 59.4 µM (inactive) with EKVX; > 100 µM (inactive) in the experiment on HL-60; > 100 µM (inactive) in the experiment on LOX IMVI; > 10 µM (inactive) in the experiment with NCI-H226. Also, the GI50 in the experiment on NCI-H23 is 43.6 µM (inactive); in the experiment with NCI-H460 it was > 100 µM (inactive); in the experiment with NCI-H522 it was 20.3 µM (inactive); in the experiment on OVCAR-3 it was > 100 µM (inactive); in the experiment with OVCAR-4, > 100 µM (inactive); in the experiment with OVCAR-5, > 100 µM (inactive). Also, the GI50 in the experiment on SF-539 is 64.1 µM (inactive); with SN12C, 96.8 µM (inactive); with SNB-75, 31.7 µM (inactive); in the experiment on TK-10, 52.7 µM (inactive); in the experiment with U-251 it was 31.8 µM (inactive).

Consider `O=C1/C(=N\O)C2CCC1C2` (stereo not given), for which the GI50 in the experiment on A498, in the experiment with ACHN, in the experiment with EKVX, in the experiment on HL-60, in the experiment on LOX IMVI and in the experiment with NCI-H226 was > 100 µM (inactive) each time. Besides, the GI50 with NCI-H23, in the experiment on NCI-H460, with NCI-H522, with OVCAR-3, with OVCAR-4 and in the experiment on OVCAR-5 was > 100 µM (inactive) in each case. The GI50 in the experiment on SF-539, in the experiment on SN12C, in the experiment on SNB-75, in the experiment with TK-10 and with U-251 was > 100 µM (inactive) throughout.

Turning to `CS(=O)(=O)OCCCOS(C)(=O)=O`, the GI50 in the experiment on A498, with ACHN, in the experiment on EKVX, with HL-60, in the experiment on LOX IMVI and in the experiment with NCI-H226 was > 100 µM (inactive) throughout. For the same molecule, the GI50 in the experiment with NCI-H23, in the experiment on NCI-H460, with NCI-H522, in the experiment with OVCAR-3, in the experiment on OVCAR-4 and in the experiment on OVCAR-5 was > 100 µM (inactive) in each case. Besides, the GI50 in the experiment with SF-539, with SN12C, in the experiment with SNB-75, in the experiment on TK-10 and with U-251 was > 100 µM (inactive) in each case.

With `C/C(=C\CC[C@]1(C)OC(C)(C)OC1CC/C(C)=C/CO[Si](c1ccccc1)(c1ccccc1)C(C)(C)C)CC/C=C/CO[Si](C)(C)C(C)(C)C` (stereo not given in full), the GI50 in the experiment on A498, with ACHN, in the experiment on EKVX, with HL-60, with LOX IMVI and with NCI-H226 was > 100 µM (inactive) throughout. Moreover, the GI50 in the experiment with NCI-H23 is > 100 µM (inactive); in the experiment with NCI-H460 it was > 100 µM (inactive); with NCI-H522, > 100 µM (inactive); in the experiment on OVCAR-3, 74.5 µM (inactive); in the experiment on OVCAR-4, > 100 µM (inactive); in the experiment with OVCAR-5, > 100 µM (inactive). Moreover, the GI50 with SF-539, in the experiment on SN12C, in the experiment with SNB-75, with TK-10 and in the experiment on U-251 was > 100 µM (inactive) throughout.
